US6699719B2, “Biosensor arrays and methods” (Proteomic Systems, Inc., priority 1996, dated 2004)

Columns and labels:
[1] = MembraneChip lipid only control corral probed with fluorescent ligand; format: binding; settings: for difference in BODIPY TMR CGP12177 fluorescence when competitor added: lipid only (negative) corral, 5 mM propranolol or 15 mM scopolamine
[2] = molecular target: CXCR4 (CXC chemokine Receptor 4) (Homo sapiens, UniProt P61073); assay: MembraneChip specificity of fluorescent ligand binding against another GPCR; settings: CXCR4 chip probed with 15 μM BODIPY 558/568 Pirenzepine
CXCR4 = CXCR4 (Homo sapiens, UniProt P61073); assay: Multiplexed MembraneChip GPCR assay; format: binding; settings: CXCR4 corral; 5 mM propranolol or 15 mM scopolamine
AR-β1 = molecular target: T1, AR-β1 (Homo sapiens, UniProt P08588); assay: Multiplexed MembraneChip GPCR assay; format: binding; settings: 15 mM scopolamine
T1 construct: purchased Packard BioScience (Meriden, CT) 6110106

CXCR3 = molecular target: T2, CXCR3 (Homo sapiens, UniProt P49682); assay: Multiplexed MembraneChip GPCR assay; format: binding; settings: CXCR3 corral; 5 mM propranolol or 15 mM scopolamine
T2 construct: purchased Stratagene (La Jolla, Calif.)
T2 sequence (P49682 1-368): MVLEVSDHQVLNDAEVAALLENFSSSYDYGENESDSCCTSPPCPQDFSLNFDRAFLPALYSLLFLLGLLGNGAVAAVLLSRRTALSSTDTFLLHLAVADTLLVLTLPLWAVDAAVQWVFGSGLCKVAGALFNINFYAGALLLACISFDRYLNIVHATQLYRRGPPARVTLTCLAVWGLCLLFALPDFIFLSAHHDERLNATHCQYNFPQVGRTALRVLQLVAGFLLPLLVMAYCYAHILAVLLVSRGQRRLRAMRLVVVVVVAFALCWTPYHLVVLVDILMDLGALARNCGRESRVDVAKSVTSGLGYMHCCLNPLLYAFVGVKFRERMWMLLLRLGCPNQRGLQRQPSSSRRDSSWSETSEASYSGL

CXCR1 = molecular target: T3, CXCR1 (Homo sapiens, UniProt P25024); assay: Multiplexed MembraneChip GPCR assay; format: binding; settings: CXCR1 corral; 5 mM propranolol or 15 mM scopolamine
T3 construct: purchased Stratagene (La Jolla, Calif.)
T3 sequence (P25024 1-350): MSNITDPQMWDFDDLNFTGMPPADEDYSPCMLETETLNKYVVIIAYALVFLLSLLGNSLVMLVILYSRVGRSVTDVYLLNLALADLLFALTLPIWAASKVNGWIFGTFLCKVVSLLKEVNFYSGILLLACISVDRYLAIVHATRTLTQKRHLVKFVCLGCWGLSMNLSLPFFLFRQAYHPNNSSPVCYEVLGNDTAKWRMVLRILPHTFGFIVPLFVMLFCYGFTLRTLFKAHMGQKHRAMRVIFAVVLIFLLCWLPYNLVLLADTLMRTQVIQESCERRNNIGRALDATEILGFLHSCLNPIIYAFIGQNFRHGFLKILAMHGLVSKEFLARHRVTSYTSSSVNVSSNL

CXCR4 (CXC chemokine Receptor 4), sequence (P61073 whole entry, species assumed): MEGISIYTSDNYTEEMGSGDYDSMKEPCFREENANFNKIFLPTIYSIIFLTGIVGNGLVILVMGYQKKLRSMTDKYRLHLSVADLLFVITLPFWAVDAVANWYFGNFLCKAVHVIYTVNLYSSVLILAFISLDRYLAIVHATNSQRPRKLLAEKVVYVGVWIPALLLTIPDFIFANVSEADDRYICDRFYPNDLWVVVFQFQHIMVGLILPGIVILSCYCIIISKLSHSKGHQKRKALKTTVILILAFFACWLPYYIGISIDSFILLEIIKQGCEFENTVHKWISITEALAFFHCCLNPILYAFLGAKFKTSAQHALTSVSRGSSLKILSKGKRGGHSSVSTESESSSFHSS
CXCR4, sequence (P61073 whole entry, species assumed): as above
T1 sequence (P08588 whole entry): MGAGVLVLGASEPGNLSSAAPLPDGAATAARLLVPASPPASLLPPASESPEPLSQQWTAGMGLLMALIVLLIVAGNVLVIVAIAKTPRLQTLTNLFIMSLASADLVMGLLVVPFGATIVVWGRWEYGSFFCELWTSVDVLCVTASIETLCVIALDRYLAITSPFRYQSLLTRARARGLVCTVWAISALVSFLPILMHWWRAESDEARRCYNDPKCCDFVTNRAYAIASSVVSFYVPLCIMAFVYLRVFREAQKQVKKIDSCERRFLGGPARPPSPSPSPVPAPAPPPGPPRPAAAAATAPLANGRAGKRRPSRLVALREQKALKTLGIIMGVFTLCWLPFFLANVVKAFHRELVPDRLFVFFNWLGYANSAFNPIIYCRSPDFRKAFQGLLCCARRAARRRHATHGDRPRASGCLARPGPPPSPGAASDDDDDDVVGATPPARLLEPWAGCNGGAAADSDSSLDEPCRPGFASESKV

Row | Relative Fluorescence Units (RFU) ± standard deviation, CXCR4 [2] | SMILES | Relative Fluorescence Units (RFU) ± standard deviation, Negative ([1]; lipid only corral probed with 15 μM BODIPY 558/568 Pirenzepine) | difference in BODIPY TMR CGP12177 fluorescence when competitor added [1] | difference in BODIPY TMR CGP12177 fluorescence when competitor added (CXCR4) | change in fluorescence of BODIPY TMR CGP12177 at AR-β1 (AR-β1) | difference in BODIPY TMR CGP12177 fluorescence when competitor added (CXCR3) | difference in BODIPY TMR CGP12177 fluorescence when competitor added (CXCR1)
1 | 8,788 ± 3,137 RFU | O=C(CCc1ccc(/C=C2\C=CC(c3cccs3)=N2)n1B(F)F)NCCCCCCN1CCN(CC(=O)N2c3ccccc3C(=O)Nc3cccnc32)CC1 [BODIPY 558/568 Pirenzepine] | 2,637 ± 1,846 RFU |  |  |  |  | 
2 |  | CN1[C@@H]2C[C@@H](OC(=O)[C@H](CO)c3ccccc3)C[C@H]1[C@@H]1O[C@@H]12 [scopolamine] |  | only negligible differences | only negligible differences | Little decrease in fluorescence | only negligible differences | only negligible differences
3 |  | CC(C)NCC(O)COc1cccc2ccccc12 (stereo not shown) [propranolol] |  | only negligible differences |  |  | only negligible differences | only negligible differences
